From ChEMBL document CHEMBL2406999, “Vialinin A is a ubiquitin-specific peptidase inhibitor” (Bioorg Med Chem Lett, 2013)
Numbering of substitutions follows the chain as printed. The source made the active and inactive calls. No cut-off for these calls is given here.

What was measured:
[1] = biological target: Cathepsin B (Homo sapiens) (UniProt P07858); test: Inhibition of cathepsin B (unknown origin) at 6.3 uM after 20 mins by fluorometric analysis
[2] = biological target: T1, Ubiquitin carboxyl-terminal hydrolase 5 (Homo sapiens, UniProt P45974); test: Competitive inhibition of wild type human USP5 expressed in Escherichia coli BL21(DE3) using Ub-AMC as substrate
T1 sequence (P45974 whole entry): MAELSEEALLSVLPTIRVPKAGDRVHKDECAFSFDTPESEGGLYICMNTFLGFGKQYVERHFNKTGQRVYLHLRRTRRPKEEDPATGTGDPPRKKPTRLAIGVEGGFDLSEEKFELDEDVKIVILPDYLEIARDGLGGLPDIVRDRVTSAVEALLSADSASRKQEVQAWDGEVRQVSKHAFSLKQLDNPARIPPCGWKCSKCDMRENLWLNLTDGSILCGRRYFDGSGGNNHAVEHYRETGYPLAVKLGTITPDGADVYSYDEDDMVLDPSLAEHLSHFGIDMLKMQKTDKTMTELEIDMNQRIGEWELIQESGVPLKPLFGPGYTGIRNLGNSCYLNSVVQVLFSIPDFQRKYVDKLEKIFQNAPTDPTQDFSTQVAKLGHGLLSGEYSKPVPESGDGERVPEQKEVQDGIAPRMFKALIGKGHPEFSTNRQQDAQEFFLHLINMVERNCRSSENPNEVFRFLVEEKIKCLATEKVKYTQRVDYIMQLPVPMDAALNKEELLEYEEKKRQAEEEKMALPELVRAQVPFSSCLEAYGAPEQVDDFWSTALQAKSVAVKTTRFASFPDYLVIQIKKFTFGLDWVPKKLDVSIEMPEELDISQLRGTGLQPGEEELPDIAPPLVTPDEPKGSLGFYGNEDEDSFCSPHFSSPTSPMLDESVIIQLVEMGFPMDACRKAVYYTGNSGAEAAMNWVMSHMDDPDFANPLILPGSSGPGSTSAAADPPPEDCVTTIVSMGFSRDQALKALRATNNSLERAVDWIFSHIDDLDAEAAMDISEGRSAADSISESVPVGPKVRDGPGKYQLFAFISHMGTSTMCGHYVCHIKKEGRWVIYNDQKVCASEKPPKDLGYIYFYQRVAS

[3] = system: T2, Ubiquitin carboxyl-terminal hydrolase 5 (Homo sapiens), P45974 [C335A,H818A]; test: Competitive binding affinity to human USP5 C335A/H818A mutant by SDS-PAGE analysis in presence of biotin-DMT
T2 sequence (whole entry): T1 sequence (P45974 whole entry) with C335A, H818A

[4] = system: T3, Ubiquitin carboxyl-terminal hydrolase 5 (Homo sapiens), P45974 [H818A]; test: Competitive binding affinity to human USP5 H818A mutant by SDS-PAGE analysis in presence of biotin-DMT
T3 sequence (whole entry): T1 sequence (P45974 whole entry) with H818A

[5] = biological target: T4, Ubiquitin carboxyl-terminal hydrolase 5 (Homo sapiens) (UniProt P45974); test: Competitive binding affinity to human recombinant USP5 after 1 hr by SDS-PAGE analysis in presence of biotin-DMT
T4 sequence (whole entry): T1 sequence (P45974 whole entry)

O=C(Cc1ccccc1)Oc1c(OC(=O)Cc2ccccc2)c(-c2ccc(O)cc2)c(O)c(O)c1-c1ccc(O)cc1 [VIALININ A]
inhibition [1]: inactive | Ki [2]: 12.5 µM | Activity [3]: inactive | Activity [4]: inactive | Activity [5]: Active
